Drawing on patent publication US10471046B2, “Method for treating, preventing, or reducing the risk of skin infection” (Melinta Subsidiary Corp., priority 2014, dated 2019), this text covers MIC for 21 compounds.

In brackets after ≈: the same amount, converted by molar mass.

The assay has as its system S. aureus. Put plainly: Minimum inhibitory concentrations (MICs) for S. aureus of exemplary compounds (Table 2). It counts as cell-based. Particulars: Staphylococcus aureus, minimum inhibitory concentrations for S. aureus; read-out: MICs. In outline: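 Growth of S. aureus in media with or without compound, by broth microdilution in microtiter trays following NCCLS M7-A5 guidelines. Values are MICs in μg/mL.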

In the case of `CC(=O)NC[C@H]1CN(c2ccc(-c3ccc([C@H](CO)NCc4ccnc5ccccc45)cc3)c(F)c2)C(=O)O1` [Compound 4031, N-[3-(2-Fluoro-4′-{2-hydroxy-1-(R)-[(quinolin-4-ylmethyl)-amino]-ethyl}-biphenyl-4-yl)-2-oxo-oxazolidin-5-(S)-ylmethyl]-acetamide], the MIC was found to be 2 µg/mL (≈ 3.78 µM).
The value for `CC(=O)NC[C@H]1CN(c2ccc(-c3ccc(Cn4cnc5c(NCC(F)F)ncnc54)cc3)c(F)c2)C(=O)O1` [Compound 1103, N-(3-{4′-[6-(2,2-Difluoro-ethylamino)-purin-9-ylmethyl]-2-fluoro-biphenyl-4-yl}-2-oxo-oxazolidin-5-(S)-ylmethyl)-acetamide] was 1 µg/mL (≈ 1.85 µM).
As for `CC(=O)NC[C@H]1CN(c2ccc(-c3ccc(CNCc4ccncc4)c(F)c3)c(F)c2)C(=O)O1` [Compound 4155, N-[3-(2,3′-Difluoro-4′-{[(pyridin-4-ylmethyl)-amino]-methyl}-biphenyl-4-yl)-2-oxo-oxazolidin-5-(S)-ylmethyl]-acetamide], the MIC turned out to be 2 µg/mL (≈ 4.29 µM).
The value for `CC(=O)NC[C@H]1CN(c2ccc(-c3ccc(CNC(=O)c4cccn4C)cc3)c(F)c2)C(=O)O1` [Compound 4010, 1-Methyl-1H-pyrrole-2-carboxylic acid {4′-[5-(S)-(acetylamino-methyl)-2-oxo-oxazolidin-3-yl]-2′-fluoro-biphenyl-4-ylmethyl}-amide] was 1 µg/mL (≈ 2.15 µM); that for `CC(=O)NC[C@H]1CN(c2ccc(-c3ccc(CNS(=O)(=O)c4ccc(N5CCOCC5)nc4)cc3)c(F)c2)C(=O)O1` [Compound 2044, N-(3-{2-Fluoro-4′-[(6-morpholin-4-yl-pyridine-3-sulfonylamino)-methyl]-biphenyl-4-yl}-2-oxo-oxazolidin-5-(S)-ylmethyl)-acetamide] was 128 µg/mL (≈ 219 µM).
The value for `CC(=O)NC[C@H]1CN(c2ccc(-c3ccc(CNCc4ccc(Cl)cc4)cc3)c(F)c2)C(=O)O1` [Compound 4063, N-(3-{4′-[(4-Chloro-benzylamino)-methyl]-2-fluoro-biphenyl-4-yl}-2-oxo-oxazolidin-5-(S)-ylmethyl)-acetamide] was 2 µg/mL (≈ 4.15 µM).
In the case of `CC(=O)NC[C@H]1CN(c2ccc(-c3ccc(CNCc4ccccn4)cc3)c(F)c2)C(=O)O1` [Compound 4024, N-[3-(2-Fluoro-4′-{[(pyridin-2-ylmethyl)-amino]-methyl}-biphenyl-4-yl)-2-oxo-oxazolidin-5-(S)-ylmethyl]-acetamide], the MIC came out at 1 µg/mL (≈ 2.23 µM).
The value for `CC(=O)NC[C@H]1CN(c2ccc(-c3ccc(CS(=O)(=O)Nc4cccnc4)cc3)c(F)c2)C(=O)O1` [Compound 2045, N-{3-[2-Fluoro-4′-(pyridin-3-ylsulfamoylmethyl)-biphenyl-4-yl]-2-oxo-oxazolidin-5-(S)-ylmethyl}-acetamide] was 2 µg/mL (≈ 4.01 µM).
The value for `CC(=O)NC[C@H]1CN(c2ccc(-c3ccc(CNC(=O)C4CCN4)cc3)c(F)c2)C(=O)O1` (stereo partly drawn) [Compound 4296, Azetidine-2-carboxylic acid {4′-[5-(S)-(acetylamino-methyl)-2-oxo-oxazolidin-3-yl]-2′-fluoro-biphenyl-4-ylmethyl}-amide] was 2 µg/mL (≈ 4.54 µM); that for `CC(=O)NC[C@H]1CN(c2ccc(-c3ccc(CN4CC[C@@H](O)C4)cc3)c(F)c2)C(=O)O1` [Compound 1088, N-{3-[2-Fluoro-4′-(3-(R)-hydroxy-pyrrolidin-1-ylmethyl)-biphenyl-4-yl]-2-oxo-oxazolidin-5-(S)-ylmethyl}-acetamide] was 4 µg/mL (≈ 9.36 µM).
The value for `CC(=O)NC[C@H]1CN(c2ccc(-c3ccc(CNCc4cnn[nH]4)nc3)c(F)c2)C(=O)O1` [Compound 4277, N-{3-[3-Fluoro-4-(6-{[(3H-[1,2,3]triazol-4-ylmethyl)-amino]-methyl}-pyridin-3-yl)-phenyl]-2-oxo-oxazolidin-5-(S)-ylmethyl}-acetamide] was 4 µg/mL (≈ 9.1 µM); that for `CC(=O)NC[C@H]1CN(c2ccc(-c3ccc(CN4CCN(CCO)CC4)cc3)c(F)c2)C(=O)O1` [Compound 1029, N-(3-{2-Fluoro-4′-[4-(2-hydroxy-ethyl)-piperazin-1-ylmethyl]-biphenyl-4-yl}-2-oxo-oxazolidin-5-(S)-ylmethyl)-acetamide] was 2 µg/mL (≈ 4.25 µM).
With `CC(=O)NC[C@H]1CN(c2ccc(-c3ccc(CNCc4ccoc4)cc3)c(F)c2)C(=O)O1` [Compound 4023, N-[3-(2-Fluoro-4′-{[(furan-3-ylmethyl)-amino]-methyl}-biphenyl-4-yl)-2-oxo-oxazolidin-5-(S)-ylmethyl]-acetamide], the MIC was determined as 1 µg/mL (≈ 2.29 µM).
The value for `CC(=O)NC[C@H]1CN(c2ccc(-c3ccc(Cn4cnc5c(NCCCF)ncnc54)cc3)c(F)c2)C(=O)O1` [Compound 1098, N-(3-{2-Fluoro-4′-[6-(3-fluoro-propylamino)-purin-9-ylmethyl]-biphenyl-4-yl}-2-oxo-oxazolidin-5-(S)-ylmethyl)-acetamide] was 2 µg/mL (≈ 3.73 µM).
The value for `CC(=O)NC[C@H]1CN(c2ccc(-c3ccc(Cn4nnc(C(N)=O)c4N)cc3)c(F)c2)C(=O)O1` [Compound 1026, 1-{4′-[5-(S)-(Acetylamino-methyl)-2-oxo-oxazolidin-3-yl]-2′-fluoro-biphenyl-4-ylmethyl}-5-amino-1H-[1,2,3]triazole-4-carboxylic acid amide] was 2 µg/mL (≈ 4.28 µM).
The value for `CC(=O)NC[C@H]1CN(c2ccc(-c3ccc(CS(=O)(=O)c4cnn[nH]4)cc3)c(F)c2)C(=O)O1` [Compound 2025, N-{3-[2-Fluoro-4′-(3H-[1,2,3]triazole-4-sulfonylmethyl)-biphenyl-4-yl]-2-oxo-oxazolidin-5-(S)-ylmethyl}-acetamide] was 8 µg/mL (≈ 16.9 µM); that for `CC(=O)NC[C@H]1CN(c2ccc(-c3ccc(CNCc4cnc[nH]4)cc3)c(F)c2)C(=O)O1` [Compound 4066, N-[3-(2-Fluoro-4′-{[(3H-imidazol-4-ylmethyl)-amino]-methyl}-biphenyl-4-yl)-2-oxo-oxazolidin-5-(S)-ylmethyl]-acetamide] was 8 µg/mL (≈ 18.3 µM); that for `CC(=O)NC[C@H]1CN(c2ccc(-c3ccc(CNCCSc4ncccn4)cc3)c(F)c2)C(=O)O1` [Compound 5009, N-[3-(2-Fluoro-4′-{[2-(pyrimidin-2-ylsulfanyl)-ethylamino]-methyl}-biphenyl-4-yl)-2-oxo-oxazolidin-5-(S)-ylmethyl]-acetamide] was 1 µg/mL (≈ 2.02 µM).
Turning to `CC(=O)NC[C@H]1CN(c2ccc(-c3ccc(CN(C)Cc4cnc[nH]4)cc3)c(F)c2)C(=O)O1` [Compound 4067, N-[3-(2-Fluoro-4′-{[(3H-imidazol-4-ylmethyl)-methyl-amino]-methyl}-biphenyl-4-yl)-2-oxo-oxazolidin-5-(S)-ylmethyl]-acetamide], the MIC was determined as 4 µg/mL (≈ 8.86 µM).
The value for `CC(=O)NC[C@H]1CN(c2ccc(-c3ccc(CN4CC[S+]([O-])CC4)cc3)c(F)c2)C(=O)O1` [Compound 1065, N-{3-[2-Fluoro-4′-(1-oxo-1 lambda*4*-thiomorpholin-4-ylmethyl)-biphenyl-4-yl]-2-oxo-oxazolidin-5-(S)-ylmethyl}-acetamide] was 2 µg/mL (≈ 4.35 µM); that for `CC(=O)NC[C@H]1CN(c2ccc(-c3ccc(CNC(=O)COc4ccc(Cl)cc4Cl)cc3)c(F)c2)C(=O)O1` [Compound 5014, N-{4′-[5-(S)-(Acetylamino-methyl)-2-oxo-oxazolidin-3-yl]-2′-fluoro-biphenyl-4-ylmethyl}-2-(2,4-dichloro-phenoxy)-acetamide] was 16 µg/mL (≈ 28.6 µM).
